According to patent US20060069043A1, “Chiral separation, characterization and biological action of optically active isomers of digoxin” (priority 2004, published 2006):
Where two headings read alike, the source gives them in different places.

How the values were obtained:
serum protein [1] = experiment: Serum protein binding by equilibrium dialysis; assay type: in vitro ADME, patients; details: human, read-out: digitoxin binding (protein binding), mean (converted)
Description: Equilibrium was obtained after 16 hours when titrated glycoside was added to serum. When added to the buffer phase, equilibrium was reached after 60 hours. Distribution of digitoxin, for example, in buffer-buffer control, was around 50% (49.4 to 50.6%). Absorption of ^3H-labeled glycoside to the dialysis membrane was 0.2% of the added ^3H-glycoside. Digitoxin protein binding was dependent on albumin content. […] No trace of protein was found when adding concentrated perchloric acid to the buffer phase. Counting efficacy was the same whether serum or buffer aliquots were added to the counting fluid. The counting error for buffer samples containing the smallest amount of radioactivity was 1% to 1.5%. Chamber equilibrium dialysis gave similar results. […] No significant change in digitoxin binding was found when the sera from 9 patients were dialyzed at 20° C. (mean, 96.7%) and at 37° C. (mean, 96.9%). Digoxin isolates will be used under similar conditions.

serum protein [2] = experiment: Free fraction by centrifugation; assay type: in vitro ADME; details: for fraction unbound at 60 min: centrifugation time 60 minutes
Description: Free fraction of digitoxin increased with centrifugation time from 18% at 10 minutes to 37% at 80 minutes (500 g) without reaching plateau levels.

[3] = system: gram-negative and gram-positive bacteria; details: against both gram-negative and gram-positive bacteria; cited from earlier work
serum protein [4] = experiment: In vitro drug studies: ability to induce changes in digitoxin serum protein binding; assay type: in vitro ADME; details: procainamide 5 mg/ml, phenytoin 50 mg/ml, heparin 5 IU/ml, rifampicillin 4.5 μg/ml
Description: The ability to induce changes in digitoxin serum protein binding was tested for the following drugs: procainamide (5 mg/ml), phenytoin (50 mg/ml), heparin (5 IU/ml), and rifampicillin (4.5 μg/ml). […] Identical procedures will be used for digoxin isolates.

guinea pig = experiment: Effect on PR interval (AV node conduction) and cardiac contractibility in anesthetized open-chest guinea pig; assay type: in vivo; details: pentobarbital anesthesia, IV infusion at 6 μg/kg/min continuously
Description: The guinea pig or rat is anesthetized with pentobarbital at 40 mg/kg IP, then connected to an EKG recorder. The animal is then placed on a small animal respirator. Aseptic surgical instruments are soaked in ethanol and then flamed. An incision is made in the chest wall to open the chest. A Walton Brody stain gauge arch is sutured to the right ventricle to measure contractile changes. The refractoriness of the AV node is determined by measuring the PR interval on the surface EKG. Graphs can be created from the data displaying the dose related change in the PR interval to the dose related contractile augmentation. Digoxin or chiral isolates are infused through the jugular vein at concentrations (from 0.1 μM and then to 10 μM) at a constant rate by infusion pump, to determine the differential effects on the AV node and cardiac contractibility. The infusions are continued to a 50% level augmentation in contractibility or the development of ventricular tachycardia. To maintain a consistent level of anesthesia, pentobarbital 20 mg/kg IP or 10 mg/kg IV for more immediate action at 30-minute intervals may be administered.
The effect of digoxin and one of the two chiral isomers was evaluated in the guinea pig. Guinea pigs were anesthetized with pentobarbital. […] An EKG was continuously recorded. Conduction through the AV node was determined by measuring the PR interval on the surface EKG. […]

Q: With `C[C@H]1O[C@@H](O[C@H]2[C@@H](O)C[C@H](O[C@H]3[C@@H](O)C[C@H](O[C@H]4CC[C@@]5(C)[C@H](CC[C@@H]6[C@@H]5CC[C@]5(C)[C@@H](C7=CC(=O)OC7)CC[C@]65O)C4)O[C@@H]3C)O[C@@H]2C)C[C@H](O)[C@@H]1O` [digitoxin] as the compound, how does the fraction unbound (serum protein [1]; sera from 9 patients dialyzed at 20° C.) read?
A: 0.033

Q: And the fraction unbound (serum protein [1]; sera from 9 patients dialyzed at 37° C.)?
A: 0.031

Q: And the fraction unbound at 10 min (serum protein [2]; centrifugation time 10 minutes, 500 g)?
A: 0.18

Q: What about the fraction unbound at 60 min (serum protein [2]; 135 g) of the same compound?
A: 0.059

Q: What about the fraction unbound at 60 min (serum protein [2]; 560 g) of the same compound?
A: 0.157

Q: What about the fraction unbound at 80 min (serum protein [2]; centrifugation time 80 minutes, 500 g) of the same compound?
A: 0.37

Q: For `CC1COc2c(N3CCN(C)CC3)c(F)cc3c(=O)c(C(=O)O)cn1c23` (single isomer, unassigned; (-)) [(−)-Ofloxacin], which “activity relative to the racemate” value [3] is on record?
A: 8-128 times

Q: Which “changes in the serum protein binding of digitoxin” value (shortened to “changes”) (serum protein [4]) does the source give for `O=C1NC(=O)C(c2ccccc2)(c2ccccc2)N1` [phenytoin] here?
A: None of these induced significant changes

Q: With `CCN(CC)CCNC(=O)c1ccc(N)cc1` [procainamide] as the compound, how does the “changes” value (serum protein [4]) read?
A: None of these induced significant changes

Q: Which “PR interval on the surface EKG (conduction through the AV node)” value (guinea pig) does the source give for `CC1O[C@@H](O[C@H]2C(O)C[C@H](O[C@H]3C(O)C[C@H](OC4CC[C@@]5(C)[C@H](CC[C@@H]6[C@@H]5C[C@@H](O)[C@]5(C)[C@@H](C7=CC(=O)OC7)CC[C@]65O)C4)OC3C)OC2C)CC(O)[C@@H]1O` (stereo partly shown) [Digoxin] here?
A: progressive increase in PR interval

Q: What about the “cardiac contractibility as measured by the strain-gauge arch” value (guinea pig) of the same compound?
A: increase in cardiac contractibility

Q: Which “changes” value (serum protein [4]) does the source give for heparin here?
A: None of these induced significant changes

Q: Which “changes” value (serum protein [4]) does the source give for rifampicillin here?
A: None of these induced significant changes
